Measurements from patent US6087376A (priority 1998, dated 2000).
Several values for one entry are separate records, joined by “and”; a condition that tells them apart may be missing. Identical values can stand only once.

What was measured:
[1] = tested on: rat striatum; experiment: Striatal DA and DOPAC content after in vivo administration of lobeline
Description: Male Sprague-Dawley rats (200-250 g) were obtained from Harlan Laboratories (Indianapolis, Ind.) and were housed two per cage with free access to food and water in the Division of Lab Animal Resources at the College of Pharmacy at the University of Kentucky. Experimental protocols involving the animals were in strict accordance with the NIH Guide for the Care and Use of Laboratory Animals and were approved by the Institutional Animal Care and Use Committee at the University of Kentucky.
Rats were killed 24 hrs after the last injection and striata were obtained immediately for determination of endogenous DA and DOPAC content. […] Striata were obtained for endogenous DA and DOPAC content determination 21 days after osmotic minipump implantation. Lobeline dose was expressed in terms of mg of lobeline hemisulfate salt per kg body weight.
An aliquot (500 μL) of 0.1 M perchloric acid (pH 1.0) containing 0.14-0.29 μM 3,4-dihydroxybenzylamine hydrobromide (DHBA, internal standard) was added to 100 mg of striatum and the mixture was sonicated with an Ultrasonic Processor (40-Watt Model, Sonics & Materials, Danbury, Conn.). The homogenate was centrifuged at 30,000×g for 10 min at 4° C., and the supernatant was filtered (0.2 μm nylon membrane). An aliquot (50 μL) of the filtrate (1:1, 1:50, 1:100, 1:200 or 1:500 dilution with 0.1 M perchloric acid) was injected onto the high pressure liquid chromatograph with electrochemical detection (HPLC-EC) system. The HPLC-EC system consisted of syringe loading injector (Model 7725, Rheodyne L. P., Cotati, Calif.), Beckman Model 116 HPLC pump (Beckman, Fullerton, Calif.), ESA ODS ultrasphere C18 reverse-phase column ([…]×75 mm, 3 micron particle size, ESA, Bedford, Mass.), and an ESA 5100A coulometric electrochemical detector with a model 5011 detector cell (E1=+0.05 V, E2=+0.32 V). The eluent was 6% acetonitrile, 10 μM EDTA, 1.4 mM 1-octane-sulfonic acid and 76 mM sodium phosphate monobasic (pH 3.1). All separations were performed at room temperature at a flow rate of 1 ml/min. Complete separation of DA and DOPAC and reequilibration of the system required 9 min. The retention time of DA, DOPAC and DHBA standards was used to identify the relevant peak. Peak heights were used to calculate the detected amount of compound based on standard curves. The detection limit of DA and DOPAC was 0.2 and 0.05 pg/50 μL injected, respectively. Recovery of internal standard was routinely 75%.

[2] = tested on: rat striatal slices preloaded with [3H]DA; experiment: Mecamylamine antagonism of lobeline-evoked [3H]overflow from rat striatal slices; assay type: cell-based; parameters: lobeline-evoked total [3H]overflow: unit not given here
[3] = tested on: learning and memory; details: in vivo; cited from earlier work
[4] = tested on: rat striatal synaptic vesicles; experiment: [3H]DA release from striatal synaptic vesicles preloaded with [3H]DA; assay type: biochemical
Experimental: The homogenate was then centrifuged at 2,000×g for 10 min at 4° C. and the resulting supernatant was centrifuged at 10,000×g for 30 min at 4° C. Synaptosomes (buffy coat) were separated from the underlying mitochondria and cellular debris (reddish pellet) by gentle swirling in 2 mL of 0.32 M sucrose. The enriched synaptosome fraction (2.0 mL) was subjected to osmotic shock by addition of 7 mL distilled H2 0 and was homogenized with 5 up and down strokes of the TEFLON pestle. The osmolarity was restored by the addition of 900 μL of 0.25 M HEPES and 900 μL of 1.0 M neutral potassium-tatrate buffer (pH 7.5) followed by a 20 min centrifugation (20,000×g at 4° C.). The supernatant was then centrifuged for 60 min (55,000×g at 4° C.).
The final vesicle pellet from a pool of striata from three rats was resuspended in 3 mL of release assay buffer (in mM: 25 HEPES, 100 L-(+)-tartaric acid dipotassium salt, 0.05 EGTA, 0.10 EDTA, 2 Mg^2+ -ATP, and 1.7 ascorbic acid, pH 7.4) and then incubated with [^3 H]DA (0.3 μM) for 8 min at 37° C. […] [^3 H]DA efflux represents the net result of events, i.e., release and reuptake. […] The reaction was terminated by addition of 2.5 mL of ice-cold assay buffer containing 2 mM MgSO4. Samples were rapidly filtered through Whatman GF/F filters using the Brandel cell harvester.
The amount of drug-induced [^3 H]DA release from synaptic vesicles was calculated by subtracting the amount of tritium remaining in the drug-exposed samples from that remaining in the control samples (in the absence of drug). The amount of drug-induced [^3 H]DA release was then divided by the amount of tritium remaining in the control samples and was expressed as a percentage of control.
Concentration-response and kinetic data were analyzed by repeated-measures one-way ANOVA and between-group one-way ANOVA, respectively. When appropriate, Fisher's least significant difference post hoc test was used to determine significant differences between treatment means. IC50 and EC50 values were obtained by an iterative nonlinear least-squarescurve-fitting program (GraphPAD-PRIZM: GraphPAD, San Diego, Calif., U.S.A.) for one-site competition and sigmoidal concentration response, respectively. The t1/2 was obtained by an iterative nonlinear least-squares curve-fitting program for one-phase decay. KD and Bmax values were obtained by Scatchard analysis using an iterative linear least-squares curve-fitting program.

[5] = tested on: monoamine oxidase; details: cited from earlier work
[6] = tested on: nicotine-evoked [3H]dopamine release from rat striatal slices; nicotinic receptors; experiment: Lobeline inhibition of nicotine-evoked [3H]DA release from rat striatal slices; assay type: cell-based; details: low concentrations
Experimental: Striatal slices were obtained from rat brain, preincubated with [^3 H]dopamine (0.1 μM) for 30 min and subsequently superfused with Kreb's buffer for 60 min.

[7] = chronic, 30 mg/kg/day s.c. osmotic minipump, 21 days
[8] = intermittent, 3 mg/kg s.c. once daily for 10 days
[9] = intermittent, 10 mg/kg s.c. once daily for 10 days

In the case of `CN1[C@@H](CC(=O)c2ccccc2)CCC[C@H]1C[C@H](O)c1ccccc1` [Lobeline, 2-[G-(β-hydroxyphenethyl)-1-methyl-2-piperidyl]-acetophenone], the “striatal DA content” value ([1]; acute, 1 mg/kg s.c., 1 hr) is reported as 756 ± 111 ng/mg protein, the “striatal DOPAC content” value ([1]; acute, 1 mg/kg s.c., 1 hr) is reported as 81 ± 12 ng/mg protein and the “striatal DA content” value ([1]; acute, 3 mg/kg s.c., 1 hr) is reported as 761 ± 103 ng/mg protein. The “striatal DOPAC content” value ([1]; acute, 3 mg/kg s.c., 1 hr) was 89 ± 15 ng/mg protein, the “striatal DA content” value ([1]; acute, 10 mg/kg s.c., 1 hr) was 841 ± 76 ng/mg protein and the “striatal DOPAC content” value ([1]; acute, 10 mg/kg s.c., 1 hr) was 82 ± 8 ng/mg protein. The “striatal DA content” value ([1]; acute, 30 mg/kg s.c., 1 hr) was 665 ± 126 ng/mg protein, the “striatal DOPAC content” value ([1]; acute, 30 mg/kg s.c., 1 hr) was 72 ± 10 ng/mg protein and the “effect on striatal DA or DOPAC content in vivo” value ([1]; any dose or treatment regimen) was “did not significantly alter”. The “striatal DA content” value [1, 7] was 856 ± 144 ng/mg protein, the “striatal DOPAC content” value [1, 7] was 62 ± 10 ng/mg protein and the “striatal DA content” value [1, 8] was 778 ± 27 ng/mg protein. For the same molecule, the “striatal DOPAC content” value [1, 8] was 57 ± 12 ng/mg protein, the “striatal DA content” value [1, 9] was 800 ± 41 ng/mg protein and the “striatal DOPAC content” value [1, 9] was 57 ± 3 ng/mg protein. The “lobeline-evoked total [3H]overflow” value ([2]; lobeline 0.1 μM, mecamylamine 0 μM) was 0.6 ± 0.4, the “lobeline-evoked total [3H]overflow” value ([2]; lobeline 0.1 μM, mecamylamine 1 μM) was 0.9 ± 0.5 and the “lobeline-evoked total [3H]overflow” value ([2]; lobeline 0.1 μM, mecamylamine 10 μM) was 0.8 ± 0.3. For the same molecule, the “lobeline-evoked total [3H]overflow” value ([2]; lobeline 0.1 μM, mecamylamine 100 μM) was 0.5 ± 0.4, the “lobeline-evoked total [3H]overflow” value ([2]; lobeline 1 μM, mecamylamine 0 μM) was 2.0 ± 0.6 and the “lobeline-evoked total [3H]overflow” value ([2]; lobeline 1 μM, mecamylamine 1 μM) was 4.9 ± 1.8. The “lobeline-evoked total [3H]overflow” value ([2]; lobeline 1 μM, mecamylamine 10 μM) was 2.4 ± 0.5, the “lobeline-evoked total [3H]overflow” value ([2]; lobeline 1 μM, mecamylamine 100 μM) was 0.7 ± 0.1 and the “lobeline-evoked total [3H]overflow” value ([2]; lobeline 3 μM, mecamylamine 0 μM) was 10.3 ± 0.8. The “lobeline-evoked total [3H]overflow” value ([2]; lobeline 3 μM, mecamylamine 1 μM) was 10.8 ± 1.4, the “lobeline-evoked total [3H]overflow” value ([2]; lobeline 3 μM, mecamylamine 10 μM) was 8.2 ± 1.5 and the “lobeline-evoked total [3H]overflow” value ([2]; lobeline 3 μM, mecamylamine 100 μM) was 6.5 ± 0.9. The “lobeline-evoked total [3H]overflow” value ([2]; lobeline 10 μM, mecamylamine 0 μM) was 31.9 ± 2.2, the “lobeline-evoked total [3H]overflow” value ([2]; lobeline 10 μM, mecamylamine 1 μM) was 32.5 ± 1.0 and the “lobeline-evoked total [3H]overflow” value ([2]; lobeline 10 μM, mecamylamine 10 μM) was 41.0 ± 6.2. For the same molecule, the “lobeline-evoked total [3H]overflow” value ([2]; lobeline 10 μM, mecamylamine 100 μM) was 20.0 ± 2.0, the “lobeline-evoked total [3H]overflow” value ([2]; lobeline 100 μM, mecamylamine 0 μM) was 185.0 ± 12 and the “lobeline-evoked total [3H]overflow” value ([2]; lobeline 100 μM, mecamylamine 1 μM) was 180.0 ± 47.6. For the same molecule, the “lobeline-evoked total [3H]overflow” value ([2]; lobeline 100 μM, mecamylamine 10 μM) was 179.5 ± 12.2, the “lobeline-evoked total [3H]overflow” value ([2]; lobeline 100 μM, mecamylamine 100 μM) was 160.4 ± 30.2 and the “inhibition of lobeline-evoked [3H]overflow by mecamylamine” value ([2]; mecamylamine 1-100 μM, lobeline 0.1-100 μM) was “not inhibited by mecamylamine”. For the same molecule, the learning and memory [3] was “improvement of learning and memory”, the “lowest concentration to evoke [3H]DA release from vesicles” value ([4]; 8 min, 37° C.) was 10 µM and the EC50 ([4]; 8 min, 37° C., read-out: EC50, evoked [3H]DA release from synaptic vesicles) was 25.3 µM and 25 µM. For the same molecule, the “t1/2 of [3H]DA efflux from vesicles” value ([4]; drug at 10 times the EC50) was 1.58 ± 0.09 min, the “inhibition of monoamine oxidase” value [5] was “does not inhibit monoamine oxidase” and the “concentrations inhibiting nicotine-evoked DA release” value [6] was 0.1 to 1 µM.
